Earlier results as cited in PubChem BioAssay AID1259409 (Chemical Carcinogenesis Research Information System (CCRIS), 2018).

Test system: rodent chemically induced tumor inhibition, incidence and multiplicity
Assay: CCRIS tumor inhibitor studies

For O=c1c(O)c(-c2ccc(O)c(O)c2)oc2cc(O)cc(O)c12, the “tumour outcome (control, treated, inhibition, significance)” value (Carcinogen: BENZO[A]PYRENE, 50-32-8, Dose [Inhibitor]: 25 MG IN 0.1 ML DMSO 3/WK, ADMINISTERED SIMULTANEOUSLY WITH CARCINOGEN FOR DURATION OF STUDY (STUDY DURATION: 368 D), Route [Inhibitor]: DERMAL, Species: MOUSE, Strain/Sex: ICR/FEMALE, Target Tissue: Type of Lesion: SKIN: PAPILLOMA, Dose [Carcinogen]: 5 UG IN 0.1 ML DMSO THAT ALSO CONTAINED AGENT 3/WK FOR DURATION OF STUDY, Promoter: NONE USED) is listed as 13/50 (26%), 0/50 (0%), 100%, not calculated, the “tumour outcome (control, treated, inhibition, significance)” value (Carcinogen: BENZO[A]PYRENE, 50-32-8, Dose [Inhibitor]: 100 UG IN 0.2 ML ACETONE ONCE 5 MINUTES BEFORE CARCINOGEN TREATMENT (STUDY DURATION: 31 WK), Route [Inhibitor]: DERMAL, Species: MOUSE, Strain/Sex: CD-1/FEMALE, Target Tissue: Type of Lesion: SKIN: PAPILLOMA, Dose [Carcinogen]: 400 NMOL IN 0.2 ML ACETONE ONCE, Promoter: 12-O-TETRADECANOYLPHORBOL-13-ACETATE, 16561-29-8) is listed as 90%, 82%, 9%, not calculated and the “tumour outcome (control, treated, inhibition, significance)” value (Carcinogen: DIETHYLNITROSAMINE, 55-18-5, N-METHYLNITROSOUREA, 684-93-5, 1,2-DIMETHYLHYDRAZINE, 540-73-8, N-BUTYL-N-(4-HYDROXYB, Carcinogen: DIETHYLNITROSAMINE, 55-18-5, N-METHYLNITROSOUREA, 684-93-5, 1,2-DIMETHYLHYDRAZINE, 540-73-8, N-BUTYL-N-(4-HYDROXYB, Dose [Inhibitor]: 0, 1% IN DIET FOR 4 WK BEGINNING 1 DAY PRIOR TO CARCINOGEN TREATMENT (STUDY DURATION: 36 WK), Route [Inhibitor]: ORAL, Species: RAT, Strain/Sex: F344/MALE, Target Tissue: Type of Lesion: KIDNEY: ADENOMA, Dose [Carcinogen]: 100 MG/KG DEN ONCE, 20 MG/KG MNU 4 TIMES, 40 MG/KG DMH 4 TIMES, 0.05% BBN IN DRINKING WATER FOR 2 WK, 0.1% DHPN IN D, Dose [Carcinogen]: 100 MG/KG DEN ONCE, 20 MG/KG MNU 4 TIMES, 40 MG/KG DMH 4 TIMES, 0.05% BBN IN DRINKING WATER FOR 2 WK, 0.1% DHPN IN D, Promoter: NONE USED) is listed as 4/14 (29%), 4/13 (31%), -7%, not significant. The “tumour outcome (control, treated, inhibition, significance)” value (Carcinogen: DIETHYLNITROSAMINE, 55-18-5, N-METHYLNITROSOUREA, 684-93-5, 1,2-DIMETHYLHYDRAZINE, 540-73-8, N-BUTYL-N-(4-HYDROXYB, Carcinogen: DIETHYLNITROSAMINE, 55-18-5, N-METHYLNITROSOUREA, 684-93-5, 1,2-DIMETHYLHYDRAZINE, 540-73-8, N-BUTYL-N-(4-HYDROXYB, Dose [Inhibitor]: 0, 1% IN DIET FOR 4 WK BEGINNING 1 DAY PRIOR TO CARCINOGEN TREATMENT (STUDY DURATION: 36 WK), Route [Inhibitor]: ORAL, Species: RAT, Strain/Sex: F344/MALE, Target Tissue: Type of Lesion: KIDNEY: NEPHROBLASTOMA, Dose [Carcinogen]: 100 MG/KG DEN ONCE, 20 MG/KG MNU 4 TIMES, 40 MG/KG DMH 4 TIMES, 0.05% BBN IN DRINKING WATER FOR 2 WK, 0.1% DHPN IN D, Dose [Carcinogen]: 100 MG/KG DEN ONCE, 20 MG/KG MNU 4 TIMES, 40 MG/KG DMH 4 TIMES, 0.05% BBN IN DRINKING WATER FOR 2 WK, 0.1% DHPN IN D, Promoter: NONE USED) was 7/14 (50%), 6/13 (46%), 8%, not significant, the “tumour outcome (control, treated, inhibition, significance)” value (Carcinogen: DIETHYLNITROSAMINE, 55-18-5, N-METHYLNITROSOUREA, 684-93-5, 1,2-DIMETHYLHYDRAZINE, 540-73-8, N-BUTYL-N-(4-HYDROXYB, Carcinogen: DIETHYLNITROSAMINE, 55-18-5, N-METHYLNITROSOUREA, 684-93-5, 1,2-DIMETHYLHYDRAZINE, 540-73-8, N-BUTYL-N-(4-HYDROXYB, Dose [Inhibitor]: 0, 1% IN DIET FOR 4 WK BEGINNING 1 DAY PRIOR TO CARCINOGEN TREATMENT (STUDY DURATION: 36 WK), Route [Inhibitor]: ORAL, Species: RAT, Strain/Sex: F344/MALE, Target Tissue: Type of Lesion: LARGE INTESTINE: ADENOMA, Dose [Carcinogen]: 100 MG/KG DEN ONCE, 20 MG/KG MNU 4 TIMES, 40 MG/KG DMH 4 TIMES, 0.05% BBN IN DRINKING WATER FOR 2 WK, 0.1% DHPN IN D, Dose [Carcinogen]: 100 MG/KG DEN ONCE, 20 MG/KG MNU 4 TIMES, 40 MG/KG DMH 4 TIMES, 0.05% BBN IN DRINKING WATER FOR 2 WK, 0.1% DHPN IN D, Promoter: NONE USED) was 7/14 (50%), 5/13 (38%), 24%, not significant and the “tumour outcome (control, treated, inhibition, significance)” value (Carcinogen: DIETHYLNITROSAMINE, 55-18-5, N-METHYLNITROSOUREA, 684-93-5, 1,2-DIMETHYLHYDRAZINE, 540-73-8, N-BUTYL-N-(4-HYDROXYB, Carcinogen: DIETHYLNITROSAMINE, 55-18-5, N-METHYLNITROSOUREA, 684-93-5, 1,2-DIMETHYLHYDRAZINE, 540-73-8, N-BUTYL-N-(4-HYDROXYB, Dose [Inhibitor]: 0, 1% IN DIET FOR 4 WK BEGINNING 1 DAY PRIOR TO CARCINOGEN TREATMENT (STUDY DURATION: 36 WK), Route [Inhibitor]: ORAL, Species: RAT, Strain/Sex: F344/MALE, Target Tissue: Type of Lesion: LARGE INTESTINE: CARCINOMA, Dose [Carcinogen]: 100 MG/KG DEN ONCE, 20 MG/KG MNU 4 TIMES, 40 MG/KG DMH 4 TIMES, 0.05% BBN IN DRINKING WATER FOR 2 WK, 0.1% DHPN IN D, Dose [Carcinogen]: 100 MG/KG DEN ONCE, 20 MG/KG MNU 4 TIMES, 40 MG/KG DMH 4 TIMES, 0.05% BBN IN DRINKING WATER FOR 2 WK, 0.1% DHPN IN D, Promoter: NONE USED) was 3/14 (21%), 5/13 (38%), -81%, not significant.
